Experimental data as given in US4472404A, “8-Quinolinyl carbamates and their use as urinary tract antimicrobials” (priority 1982, dated 1984).
Values after ≈ are worked out from the molar mass of the structure shown. Like-named read-outs stand apart in the source and are kept apart here.

Legend:
Type in all cases: cell-based
Bacillus subtilis = assay: Agar-plate minimum inhibitory concentration (Example 12); conditions: read-out: Minimum Inhibitory Concentration
Method: (§1) The test compound was added to molten agar as a solution (when conveniently soluble in a solvent such as dimethylformamide) or a suspension forming a mixture having a concentration of 0.05 percent (500 ppm). The mixture was stirred and poured into plates to harden. When hardened, the plates were inoculated with various bacteria and fungi. The bacteria-inoculated plates were incubated at 37° C. for 24 hours, while the fungi-inoculated plates were incubated for about 72-120 hours. Following incubation, the plates were examined for growth or inhibition of the respective organisms.
(§2) After the initial readings, compounds showing sufficient activity were re-tested at various concentrations to determine the minimum inhibitory concentration (in ppm) of the compounds of the invention against the various bacteria and fungi tested.

[1] = system: Trichophyton mentagrophytes; assay: as above; conditions: read-out: Minimum Inhibitory Concentration
Method: as §1, §2

Ceratocystis ips = assay: as above; conditions: read-out: Minimum Inhibitory Concentration
Method: as §1, §2

Streptococcus mutans = assay: as above; conditions: read-out: Minimum Inhibitory Concentration
Method: as §1, §2

Aspergillus niger = assay: as above; conditions: read-out: Minimum Inhibitory Concentration
Method: as §1, §2

Salmonella typhosa = assay: as above; conditions: Salmonella enterica, read-out: Minimum Inhibitory Concentration
Method: as §1, §2

Candida pelliculosa = assay: as above; conditions: Hansenula anomala, read-out: Minimum Inhibitory Concentration
Method: as §1, §2

Candida albicans = assay: as above; conditions: read-out: Minimum Inhibitory Concentration
Method: as §1, §2

[2] = system: Enterobacter aerogenes ATCC 13048; assay: Minimum inhibitory concentration, urinary tract organisms (Example 13); conditions: Klebsiella aerogenes
Method: as §1, §2
(§3) Following a procedure substantially the same as that described in Example 12, the minimum inhibitory concentration for the compounds described herein was determined for various organisms representative of those commonly associated with urinary tract infections.
(§4) The organisms used in this procedure and the abbreviations designated in Table 3 are as follows: […]

[3] = system: Escherichia coli ATCC 9723; assay: as above
Method: as §1, §2, §3, §4

[4] = system: Escherichia coli ATCC 25922; assay: as above
Method: as §1, §2, §3, §4

[5] = system: Escherichia coli ATCC 4157; assay: as above
Method: as §1, §2, §3, §4

Serratia marcescens M-1 = assay: as above
Method: as §1, §2, §3, §4

[6] = system: Pseudomonas aeruginosa ATCC 10145; assay: as above
Method: as §1, §2, §3, §4

[7] = system: Klebsiella pneumoniae M-1; assay: as above
Method: as §1, §2, §3, §4

[8] = system: Pseudomonas aeruginosa ATCC 27853; assay: as above
Method: as §1, §2, §3, §4

Proteus mirabilis 470/1 = assay: as above
Method: as §1, §2, §3, §4

[9] = system: Klebsiella pneumoniae M-6; assay: as above
Method: as §1, §2, §3, §4

[10] = system: Escherichia coli ATCC 11229; assay: as above
Method: as §1, §2, §3, §4

[11] = system: Klebsiella pneumoniae ATCC 23357; assay: as above
Method: as §1, §2, §3, §4

[12] = system: Klebsiella pneumoniae M-2; assay: as above
Method: as §1, §2, §3, §4

[13] = system: Pseudomonas aeruginosa ATCC 7700; assay: as above
Method: as §1, §2, §3, §4

[14] = system: Pseudomonas aeruginosa PRD-10; assay: as above
Method: as §1, §2, §3, §4

[15] = system: Staphylococcus aureus ATCC 25923; assay: as above
Method: as §1, §2, §3, §4

[16] = M1, read-out: Minimum Inhibitory Concentration

CCOC(=O)CNC(=O)Oc1cccc2cccnc12 [Example 9, Ethyl N-(((8-quinolinyl)oxy)carbonyl)glycinate]
MIC (Bacillus subtilis; agar, 37° C., 24 hours): 10 µg/mL (≈ 36.5 µM)
MIC ([1]; agar, 72-120 hours): 50 µg/mL (≈ 182 µM)
MIC (Ceratocystis ips; Ceratocystis ips, agar, 72-120 hours): 100 µg/mL (≈ 365 µM)
MIC (Streptococcus mutans; agar, 37° C., 24 hours): 5 µg/mL (≈ 18.2 µM)
MIC (Aspergillus niger; agar, 72-120 hours): 100 µg/mL (≈ 365 µM)
MIC (Salmonella typhosa; Salmonella typhosa, agar, 37° C., 24 hours): 50 µg/mL (≈ 182 µM)
MIC (Candida pelliculosa; Candida pelliculosa, agar, 72-120 hours): 50 µg/mL (≈ 182 µM)
MIC (Candida albicans; agar, 72-120 hours): 100 µg/mL (≈ 365 µM)
MIC ([2]; ATCC13048, Ea 13048, read-out: Minimum Inhibitory Concentration): 100 µg/mL (≈ 365 µM)
MIC ([3]; ATCC9723, Ec 9723, read-out: Minimum Inhibitory Concentration): 75 µg/mL (≈ 273 µM)
MIC ([4]; ATCC25922, Ec 25922, read-out: Minimum Inhibitory Concentration): 75 µg/mL (≈ 273 µM)
MIC ([5]; ATCC4157, Ec 4157, read-out: Minimum Inhibitory Concentration): 75 µg/mL (≈ 273 µM)
MIC (Serratia marcescens M-1; M1, Sr M-1, read-out: Minimum Inhibitory Concentration): 100 µg/mL (≈ 365 µM)
MIC ([6]; ATCC10145, Pa 10145, read-out: Minimum Inhibitory Concentration): 50 µg/mL (≈ 182 µM)
MIC ([7]; M1, Kp M-1, read-out: Minimum Inhibitory Concentration): 100 µg/mL (≈ 365 µM)
MIC ([8]; ATCC27853, Pa 27853, read-out: Minimum Inhibitory Concentration): 250 µg/mL (≈ 911 µM)
MIC (Proteus mirabilis 470/1; Pm 470/1, read-out: Minimum Inhibitory Concentration): 75 µg/mL (≈ 273 µM)
MIC ([9]; M6, Kp M-6, read-out: Minimum Inhibitory Concentration): 75 µg/mL (≈ 273 µM)
MIC ([10]; ATCC11229, Ec 11229, read-out: Minimum Inhibitory Concentration): 75 µg/mL (≈ 273 µM)
MIC ([11]; ATCC23357, Kp 23357, read-out: Minimum Inhibitory Concentration): 50 µg/mL (≈ 182 µM)
MIC ([12]; M2, Kp M-2, read-out: Minimum Inhibitory Concentration): 100 µg/mL (≈ 365 µM)
MIC ([13]; ATCC7700, Pa 7700, read-out: Minimum Inhibitory Concentration): 500 µg/mL (≈ 1820 µM)
MIC ([14]; PRD10, Pa PRD-10, read-out: Minimum Inhibitory Concentration): 500 µg/mL (≈ 1820 µM)
MIC ([15]; ATCC25923, Sa 25923, read-out: Minimum Inhibitory Concentration): 10 µg/mL (≈ 36.5 µM)

CNC(=O)Oc1c(Cl)cc(Cl)c2cccnc12 [Example 10, 5,7-Dichloro-8quinolinyl N-methylcarbamate]
MIC (Bacillus subtilis; 24 h): 0.5 µg/mL (≈ 1.84 µM)
MIC [1]: 50 µg/mL (≈ 184 µM)
MIC (Ceratocystis ips): 50 µg/mL (≈ 184 µM)
MIC (Streptococcus mutans; 24 h): 10 µg/mL (≈ 36.9 µM)
MIC (Aspergillus niger): 10 µg/mL (≈ 36.9 µM)
MIC (Salmonella typhosa; TYPHOSA, 24 h): 10 µg/mL (≈ 36.9 µM)
MIC (Candida pelliculosa): 5 µg/mL (≈ 18.4 µM)
MIC (Candida albicans): 5 µg/mL (≈ 18.4 µM)
MIC ([2]; ATCC13048, read-out: Minimum Inhibitory Concentration): 25 µg/mL (≈ 92.2 µM)
MIC ([3]; ATCC9723, read-out: Minimum Inhibitory Concentration): 10 µg/mL (≈ 36.9 µM)
MIC ([4]; ATCC25922, read-out: Minimum Inhibitory Concentration): 10 µg/mL (≈ 36.9 µM)
MIC ([5]; ATCC4157, read-out: Minimum Inhibitory Concentration): 10 µg/mL (≈ 36.9 µM)
MIC (Serratia marcescens M-1; [16]): 25 µg/mL (≈ 92.2 µM)
MIC ([6]; ATCC10145, read-out: Minimum Inhibitory Concentration): 10 µg/mL (≈ 36.9 µM)
MIC [7, 16]: 25 µg/mL (≈ 92.2 µM)
MIC ([8]; ATCC27853, read-out: Minimum Inhibitory Concentration): 50 µg/mL (≈ 184 µM)
MIC (Proteus mirabilis 470/1; 470/1, read-out: Minimum Inhibitory Concentration): 10 µg/mL (≈ 36.9 µM)
MIC ([9]; M6, read-out: Minimum Inhibitory Concentration): 25 µg/mL (≈ 92.2 µM)
MIC ([10]; ATCC11229, read-out: Minimum Inhibitory Concentration): 10 µg/mL (≈ 36.9 µM)
MIC ([11]; ATCC23357, read-out: Minimum Inhibitory Concentration): 10 µg/mL (≈ 36.9 µM)
MIC ([12]; M2, read-out: Minimum Inhibitory Concentration): 25 µg/mL (≈ 92.2 µM)
MIC ([13]; ATCC7700, read-out: Minimum Inhibitory Concentration): 50 µg/mL (≈ 184 µM)
MIC ([14]; PRD10, read-out: Minimum Inhibitory Concentration): 25 µg/mL (≈ 92.2 µM)
MIC ([15]; ATCC25923, read-out: Minimum Inhibitory Concentration): < 5 µg/mL
